Where two headings read alike, the source gives them in different places. Ends that are not written are not given here.
How the values were obtained:
RBL-2H3 cells = format: cell-based, rat; settings: for EC50 / EC50 (μg/mL), RBL-2H3: pH 7.4
Description: (§1) RBL-2H3 cells (rat mucosal-type mast cell line) and P815 cells (mouse mast cell tumor cell line) were obtained from the BeNa Culture Collection (Xinyang, China). RBL-2H3 cells were cultured in DMEM (Gibco, Wuhan, China) supplemented with 15% FBS (Gibco), and P815 cells were maintained in RPMI 1640 basic medium supplemented with 10% FBS and antibiotics (100 mg/L streptomycin and 1 × 10^5 U/L penicillin) in a humidified atmosphere (5% CO2, 37 °C).
(§2) Degranulation was analyzed by measuring the release of the granule marker N-acetyl-D-glucosaminidase (β-hexosaminidase), which colocalizes with histamine, as described in [24]. For this, 2 × 10^5 P815 cells/mL or 1.5 × 10^5 RBL-2H3 cells/mL were seeded in 96-well cell culture plates. Twelve hours later, the cells were incubated with various concentrations of mastoparans dissolved in 100 μL HEPES buffer (137 mM NaCl, 2.7 mM KCl, 1 mM MgCl2, 1.8 mM CaCl2, 20 mM HEPES, 1 mg/mL BSA, and 1 mg/mL glucose, pH 7.4) for 15 min at 37 °C and 5% CO2. Then, the reactions were quenched by the addition of 0.15 mL of ice-cold HEPES buffer. After centrifugation, the supernatants were sampled for the β-hexosaminidase assay. Briefly, 50 μL samples of the cell culture supernatants and 50 μL of the substrate, 5 mM p-nitrophenyl-N-acetyl-b-D-glucosaminide (Sigma) in 0.2 M citrate, pH 4.5, were incubated in 96-well plates at 37 °C and 5% CO2 for 16–18 h to yield the chromophore p-nitrophenol, and the reactions were stopped by the addition of 100 μL of 0.2 M glycine solution, pH 10.7. The absorbance of the colored product was assessed at 405 nm using a microtiter plate reader. The values for β-hexosaminidase released in the medium are expressed as the percentage of total β-hexosaminidase, which was measured in the cells after lysis in 0.1% Triton X-100. The experiment was repeated three times, and the results represent the mean and standard deviation (SD) of quadruplicate tests. The percent degranulation was calculated according to the following equation:Degranulation Rate (%) = 100% × (Amastoparans − AHEPES)/(ATriton X-100 − AHEPES).
Statistical analysis was performed with GraphPad Prism software. The curve of mast cell degranulation induced by wasp mastoparans was generated in SigmaPlot 12.5 software, and the EC50 was calculated according to the following equation (Four-Parameter Logistic Curve): y = min + (max − min)/(1 + (x/EC50) […] Hillslope).

P815 cells = assay: Mast cell degranulation activity (β-hexosaminidase release) in P815 cells; format: cell-based, mouse
Description: as §1, §2

[1] = RBL-2H3 cells, 80 μg/mL peptide, 15 min at 37 °C, % of total β-hexosaminidase (0.1% Triton X-100 lysis)
[2] = P815 cells, 80 μg/mL peptide, 15 min at 37 °C, % of total β-hexosaminidase (0.1% Triton X-100 lysis)

Compound | EC50 (RBL-2H3 cells) | also measured
CC[C@H](C)[C@H](NC(=O)[C@H](CC(=O)O)NC(=O)[C@@H](N)Cc1ccccc1)C(=O)N[C@@H](CCSC)C(=O)NCC(=O)N[C@@H](CC(C)C)C(=O)N[C@H](C(=O)N[C@@H](CCCCN)C(=O)N[C@@H](CCCCN)C(=O)N[C@H](C(=O)N[C@@H](C)C(=O)NCC(=O)N[C@@H](C)C(=O)N[C@@H](CC(C)C)C(N)=O)C(C)C)[C@@H](C)CC [EMP-ER] | 76.2 ± 5.81 µM | 
CC[C@H](C)[C@H](N)C(=O)N[C@@H](CC(N)=O)C(=O)N[C@@H](CC(C)C)C(=O)N[C@@H](CCCCN)C(=O)N[C@@H](C)C(=O)N[C@@H](CC(C)C)C(=O)N[C@@H](C)C(=O)N[C@@H](C)C(=O)N[C@@H](CC(C)C)C(=O)N[C@@H](C)C(=O)N[C@@H](CCCCN)C(=O)N[C@@H](CCCCN)C(=O)N[C@H](C(=O)N[C@@H](CC(C)C)C(N)=O)[C@@H](C)CC [Mastoparan(-L), reference compound] | 52.1 ± 3.21 µM | 
FDLLGLVKKVASAL-NH2 [EpVP2a] | 31.6 ± 4.31 µM | 
FDLLGLVKSVVSAL-NH2 [EpVP2b] | 25.9 ± 2.88 µM | 
FDVMGIIKKIASAL-NH2 [EMP-EF] | 25.1 ± 1.59 µM | 
GRILSFIKGLAEHL-NH2 [EMP-OD] | > 200 µM | Degranulation at 80 μg/mL, RBL-2H3 (RBL-2H3 cells; [1]): 4%; EC50 (μg/mL), RBL-2H3 (RBL-2H3 cells): >300 µg/mL; Degranulation at 80 μg/mL, P815 (P815 cells; [2]): <20%
IDWKKLLDAAKQIL-NH2 [Polybia-MPI] | 23.2 ± 2.09 µM | 
IDWLKLGKMVMDVL-NH2 [Polybia-MPIII] | 114 ± 59.3 µM | 
IDWLKLRVISVIDL-NH2 [Polybia-MPIV] | > 200 µM | Degranulation at 80 μg/mL, RBL-2H3 (RBL-2H3 cells; [1]): 6%; EC50 (μg/mL), RBL-2H3 (RBL-2H3 cells): >300 µg/mL; Degranulation at 80 μg/mL, P815 (P815 cells; [2]): <20%
IKWKAILDAVKKVL-NH2 [Mastoparan-A] | 28.4 ± 1.55 µM | 
INLFGFAALVKKFL-NH2 [Mastoparan-T4] | 18.2 ± 3.52 µM | 
INLKAIAAFAKKLL-NH2 [Mastoparan-T] | 138 ± 68.4 µM | 
INLKAIAALAKKLF-NH2 [Mastoparan-AF] | 18.1 ± 3.94 µM | 
INLKAIAALAKKLL-NH2 [Mastoparan-M] | > 200 µM | Degranulation at 80 μg/mL, RBL-2H3 (RBL-2H3 cells): 10%; EC50 (μg/mL), RBL-2H3 (RBL-2H3 cells): >300 µg/mL; Degranulation at 80 μg/mL, P815 (P815 cells): <20%
INLKAIAALVKKVL-NH2 [HR1] | 48.8 ± 3.57 µM | 
INLKALAALVKKVL-NH2 [Mastoparan-II] | 58.7 ± 24.8 µM | 
INLKALLAVAKKIL-NH2 [Mastoparan-C] | 32.6 ± 8.56 µM | 

Compound | EC50 (RBL-2H3 cells) | also measured
INLKVFAALVKKFL-NH2 [Mastoparan-T1] | 32.1 ± 10 µM | 
INLKVFAALVKKLL-NH2 [Mastoparan-T2] | 24.2 ± 7.89 µM | 
INLLKIAKGIIKSL-NH2 [EMP-AF] | 76.9 ± 19.6 µM | 
INMKASAAVAKKLL-NH2 [Mastoparan-VB1] | > 200 µM | degranulation of RBL-2H3 / mast cells, in words (RBL-2H3 cells; RBL-2H3 cells): neither of them could induce the degranulation; Degranulation at 80 μg/mL, RBL-2H3 (RBL-2H3 cells; [1]): −1%; EC50 (μg/mL), RBL-2H3 (RBL-2H3 cells): >300 µg/mL; Degranulation at 80 μg/mL, P815 (P815 cells; [2]): <20%
INMKAVAAVAKKPL-NH2 [Mastoparan-VB2] | > 200 µM | degranulation of RBL-2H3 / mast cells, in words (RBL-2H3 cells; RBL-2H3 cells): neither of them could induce the degranulation; Degranulation at 80 μg/mL, RBL-2H3 (RBL-2H3 cells; [1]): 0%; EC50 (μg/mL), RBL-2H3 (RBL-2H3 cells): >300 µg/mL; Degranulation at 80 μg/mL, P815 (P815 cells; [2]): <20%
INWAKLGKLALQAL-NH2 [Ropalidia-MP] | 33 ± 5.79 µM | 
INWHDIAIKNIDAL-NH2 [Polybia-MPV] | > 200 µM | Degranulation at 80 μg/mL, RBL-2H3 (RBL-2H3 cells; [1]): 1%; EC50 (μg/mL), RBL-2H3 (RBL-2H3 cells): >300 µg/mL; Degranulation at 80 μg/mL, P815 (P815 cells; [2]): <20%
INWKAIIEAAKQAL-NH2 [Protopolybia-MPII] | 77.9 ± 9.08 µM | 
INWKAILQRIKKML-NH2 [Agelaia-MPII] | 34.7 ± 9.03 µM | 
INWKALLDAAKKVL-NH2 [Protonectarina-MP] | 46.4 ± 3.1 µM | 
INWKGIAAMAKKLL-NH2 [Mastoparan-X(V)] | 78.8 ± 15 µM | 
INWKGIAAMKKLL-NH2 [Mastoparan-like peptide 12b] | > 200 µM | Degranulation at 80 μg/mL, RBL-2H3 (RBL-2H3 cells; [1]): 11%; EC50 (μg/mL), RBL-2H3 (RBL-2H3 cells): >300 µg/mL; Degranulation at 80 μg/mL, P815 (P815 cells; [2]): <20%
INWKKIAEIGKQVLSAL-NH2 [Dominulin B] |  | Degranulation at 80 μg/mL, RBL-2H3 (RBL-2H3 cells; [1]): 24%; EC50 (μg/mL), RBL-2H3 (RBL-2H3 cells): 148.45 ± 51.31 µg/mL; Degranulation at 80 μg/mL, P815 (P815 cells; [2]): <20%
INWKKIAEVGGKILSSL-NH2 [Dominulin A] | > 200 µM | Degranulation at 80 μg/mL, RBL-2H3 (RBL-2H3 cells; [1]): 11%; EC50 (μg/mL), RBL-2H3 (RBL-2H3 cells): >300 µg/mL; Degranulation at 80 μg/mL, P815 (P815 cells; [2]): <20%
INWKKIASIGKEVLKAL-NH2 [PMM2] | 36.6 ± 4.61 µM | 
INWKKIFQKVKNLV-NH2 [PDD-A] | 65.8 ± 19.5 µM | 

From publication PMC10222454, “Characterization of the Molecular Diversity and Degranulation Activity of Mastoparan Family Peptides from Wasp Venoms” (Toxins, 2023)
